The structures appear in SMILES notation. Where two headings read alike, the source gives them in different places. Where only a bound is given, the exact number is not on record here.

One assay deals with T1, HDAC1 (Homo sapiens, UniProt Q13547).
T1 construct: purchased BPS Bioscience
In words: In vitro HDAC1 enzymatic activity inhibition (Lys-Ac-AMC substrate). It is filed as biochemical. The procedure: Determining the inhibition capability to HDAC activity through the substrate method of fluorophore 4-amino-7-coumarin coupled Ac-peptide (Lys-Ac-AMC). HDAC1 protein is purchased from BPS Bioscience Company; the reaction buffer system is a modified tris(hydroxymethyl)aminomethane (TRIS) buffer (pH7.0). All small molecule compounds are prepared and dissolved by 100% DMSO (dimethyl sulfoxide). HDAC is prepared into the buffer as per certain concentration to be served as the enzyme solution; trypsin and the fluorophore 4-amino-7-coumarin coupled Ac-peptide substrate are prepared into the buffer as per certain concentration to be served as the substrate solution. Adding the compound into the reaction wells of the 384 well plate at the designed concentration, then adding 15 μL HDAC solution into the reaction wells (adding 15 μL blank buffer into the control well 0) for incubation under ambient temperature for 15 min; then adding 10 μL substrate solution to start reaction; during the reaction, the final concentration of HDAC1 protein is 6 nM, trypsin 0.05 μM and Ac-peptide 8 μM.
(§1) Calculating the value of IC50 as per the formula: Y=background data+(top data−background data)/(1+10^((Log IC50−X)*rate of curve))
Where, Y refers to the inhibition ratio (%) and X refers to the compound concentration. […]
Analyzing the result data with the software GraphPad Prism and calculating the value of IC50 as per the formula: Y=background data+(top data−background data)/(1+10^((Log IC50−X)*rate of curve)). Where, Y refers to the inhibition ratio (%) and X refers to the compound concentration.

The target of a further assay is T2, PI3Kα (Homo sapiens, UniProt P42336).
T2 construct: purchased Invitrogen PV4788
T2 sequence (P42336 whole entry, species assumed): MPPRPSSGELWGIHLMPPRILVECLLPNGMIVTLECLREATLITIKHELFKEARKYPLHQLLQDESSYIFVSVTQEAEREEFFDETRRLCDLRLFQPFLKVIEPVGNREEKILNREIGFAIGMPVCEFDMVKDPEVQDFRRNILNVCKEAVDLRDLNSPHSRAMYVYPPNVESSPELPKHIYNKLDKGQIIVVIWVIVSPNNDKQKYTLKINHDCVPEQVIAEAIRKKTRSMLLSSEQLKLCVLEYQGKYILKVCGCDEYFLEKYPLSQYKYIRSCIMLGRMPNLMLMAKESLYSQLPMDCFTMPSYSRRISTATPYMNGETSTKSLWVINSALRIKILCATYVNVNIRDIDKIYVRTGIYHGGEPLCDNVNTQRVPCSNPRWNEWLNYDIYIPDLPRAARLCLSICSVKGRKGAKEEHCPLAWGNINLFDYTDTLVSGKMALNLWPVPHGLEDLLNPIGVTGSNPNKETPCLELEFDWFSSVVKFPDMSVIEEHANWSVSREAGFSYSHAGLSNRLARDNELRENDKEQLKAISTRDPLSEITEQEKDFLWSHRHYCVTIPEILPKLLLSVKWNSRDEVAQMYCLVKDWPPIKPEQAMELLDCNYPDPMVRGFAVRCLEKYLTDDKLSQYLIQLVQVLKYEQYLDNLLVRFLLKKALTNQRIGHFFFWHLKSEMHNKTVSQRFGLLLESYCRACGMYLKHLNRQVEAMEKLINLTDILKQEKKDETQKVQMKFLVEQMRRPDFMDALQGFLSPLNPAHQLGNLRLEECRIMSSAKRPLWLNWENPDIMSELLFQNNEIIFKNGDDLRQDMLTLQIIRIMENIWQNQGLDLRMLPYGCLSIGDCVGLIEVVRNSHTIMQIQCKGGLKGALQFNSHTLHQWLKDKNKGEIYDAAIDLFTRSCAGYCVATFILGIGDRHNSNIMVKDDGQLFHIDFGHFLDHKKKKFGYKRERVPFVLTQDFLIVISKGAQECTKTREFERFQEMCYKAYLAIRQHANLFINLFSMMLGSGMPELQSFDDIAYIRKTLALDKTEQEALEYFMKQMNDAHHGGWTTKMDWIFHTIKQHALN
T2 sequence (P27986 whole entry partner, species assumed): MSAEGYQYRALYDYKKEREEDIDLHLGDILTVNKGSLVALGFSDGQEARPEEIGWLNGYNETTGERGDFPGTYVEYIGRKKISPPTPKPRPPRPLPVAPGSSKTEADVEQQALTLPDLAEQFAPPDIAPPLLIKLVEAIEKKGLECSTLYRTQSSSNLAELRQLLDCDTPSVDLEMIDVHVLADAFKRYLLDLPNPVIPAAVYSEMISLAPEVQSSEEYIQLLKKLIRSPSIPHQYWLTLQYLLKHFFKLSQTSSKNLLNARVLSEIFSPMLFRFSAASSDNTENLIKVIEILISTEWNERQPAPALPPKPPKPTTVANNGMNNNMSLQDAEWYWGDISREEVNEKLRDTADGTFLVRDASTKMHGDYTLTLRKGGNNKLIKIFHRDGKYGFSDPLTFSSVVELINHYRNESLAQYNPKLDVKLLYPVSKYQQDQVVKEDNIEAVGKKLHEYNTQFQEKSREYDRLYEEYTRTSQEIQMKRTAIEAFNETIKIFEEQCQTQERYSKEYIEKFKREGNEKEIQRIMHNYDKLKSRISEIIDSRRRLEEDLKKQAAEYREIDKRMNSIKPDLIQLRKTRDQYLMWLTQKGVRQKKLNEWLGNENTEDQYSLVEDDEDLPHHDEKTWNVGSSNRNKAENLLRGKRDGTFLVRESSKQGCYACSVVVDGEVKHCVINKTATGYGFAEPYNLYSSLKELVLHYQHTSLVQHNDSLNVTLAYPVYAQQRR
In words: PI3Kα activity inhibition (Kinase-Glo). It is filed as biochemical. The protocol:
Detecting the inhibition capability of the compound to PI3Kα and PI3Kδ activities with Kinase-Glo (purchased from Promege Company; Catalog No.: V3771). […] The reaction system also comprises substrates as PIP2 (4, 5-diphosphoinositide, purchased from Life Technologies Company) and ATP (triphosadenine, purchased from Sigma Company). The reaction buffer system comprises 50 mM HEPES (4-hydroxyethylpiperazine ethane sulfonic acid), 3 mM MgCl2, 1 mM EGTA (ethylene glycol bis(2-amino ethylether)quadrol), 100 mM NaCl, 0.03% CHAPS (3-[3-(cholamidopropyl)dimethylamino]-1-propanesulfonic acid), 2 mM DTT (dithiothreitol). The pH value of the reaction buffer is 7.5. […] Mixing the system evenly for incubation under ambient temperature (for 1 h in PI3Kα test and for 2 h in PI3Kδ test). After incubation, adding 10 μL Kinase-Glo which has been preheated to ambient temperature into each reaction well to terminate the reaction; shaking it in dark place for 15 min after it is mixed evenly, then measuring the fluorescence intensity with a microplate reader and analyzing the result data with the software GraphPad Prism.
as §1
Where, Y refers to the inhibition ratio (%) and X refers to the compound concentration.
A general note: Kinase-Glo reads ATP consumption through a luciferase reaction.

In assay [1] the test system is hct116 cells (colon cancer). Kind of assay: Cell proliferation inhibition, hct116 (MTT). To be noted: Homo sapiens, HCT-116. It is filed as cell-based. The procedure:
(§2) The tumor cell lines are purchased from American Type Culture Collection (ATCC) and cultivated to the status of logarithmic growth as per the cultural method recommended by ATCC. The cells in logarithmic phase are spread on a 96 well plate as per 2000-3000/well; as for anchorage-dependent cells, the compound should be added in the test wells at certain concentration for incubation for 96 h after cell adherence. Determining cell proliferation activities with method MTT for tumor cells representing solid tumor model and with method cck-8 for tumor cells representing hematologic tumor model, and analyzing the result data with the software GraphPad Prism.
(§3) Calculating the value of IC50 as per the formula: Y=background data+(top data−background data)/(1+10^((Log IC50−X)*rate of curve)). Where, Y refers to the inhibition ratio (%) and X refers to the compound concentration.

Assay [2] concerns A2780s cells (ovarian cancer). In words: Cell proliferation inhibition, A2780s (MTT). Format: cell-based. To be noted: Homo sapiens, 96 h incubation, read-out: Proliferation IC50, Ovarian cancer A2780s. The procedure: as §2, §3
Assay [3] deals with MV4-11 cells (acute myeloid leukemia). In words: Cell proliferation inhibition, MV4-11 (cck-8). Format: cell-based. Conditions: Homo sapiens. The procedure: as §2, §3
The mark [4] stands for this setting: Table 1, graded, read-out: HDAC1 IC50.
Setting [5] is: Table 1, graded, read-out: PI3Kα IC50.
The mark [6] stands for this setting: 96 h incubation, read-out: Proliferation IC50, Colon cancer hct116.
Where [7] appears, read: 96 h incubation, read-out: Proliferation IC50, Acute myeloid leukemia MV4-11.
Where [8] appears, read: read-out: inhibition value IC50 to the activity of HDAC1.

T1 sequence (Q13547 whole entry, species assumed): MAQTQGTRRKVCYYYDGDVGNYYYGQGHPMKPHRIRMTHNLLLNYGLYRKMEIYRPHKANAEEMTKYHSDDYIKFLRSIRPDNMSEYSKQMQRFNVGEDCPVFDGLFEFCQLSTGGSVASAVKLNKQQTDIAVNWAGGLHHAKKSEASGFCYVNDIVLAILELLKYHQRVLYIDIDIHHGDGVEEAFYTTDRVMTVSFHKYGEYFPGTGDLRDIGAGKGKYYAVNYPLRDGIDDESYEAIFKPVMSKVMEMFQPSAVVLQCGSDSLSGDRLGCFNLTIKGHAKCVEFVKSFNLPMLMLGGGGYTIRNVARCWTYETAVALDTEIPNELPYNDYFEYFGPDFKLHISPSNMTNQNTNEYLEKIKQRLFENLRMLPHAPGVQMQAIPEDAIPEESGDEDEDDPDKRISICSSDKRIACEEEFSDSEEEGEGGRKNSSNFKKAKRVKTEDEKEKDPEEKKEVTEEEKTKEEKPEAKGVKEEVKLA

For the molecule `CCn1c(CN(C)c2ncc(C(=O)NO)cn2)nc2c(N3CCOCC3)nc(-c3ccc(OC)nc3)nc21` [CLJ-2, 2-(((9-ethyl-2(6-methoxyl 3-pyridyl)-6-morpholino-9H-purine-8-yl))methyl(methyl)amino)-N-hydroxyl pyrimidine-5-formamide], the IC50 was less than 100 nM on HDAC1 (setting [4]); 1000 to 10000 nM at PI3Kα (setting [5]); 100 to 1000 nM in assay [1] (setting [6]); 100 to 1000 nM in assay [2]; 100 to 1000 nM in assay [3] (setting [7]).

In the case of `COc1ccc(-c2nc(N3CCOCC3)c3nc(CN(C)c4ncc(C(=O)NO)cn4)n(C(C)C)c3n2)cn1` [CLJ-3, 2-(((9-isopropyl-2-(6-methoxyl-3-pyridyl)-6-morpholino-9H-purine-8-yl))methyl(methyl)amino)-N-hydroxyl pyrimidine-5-formamide], the IC50 at HDAC1 (setting [4]) is less than 100 nM; on PI3Kα (setting [5]) it was 1000 to 10000 nM; in assay [1] (setting [6]), more than 1000 nM; in assay [2], more than 1000 nM; in assay [3] (setting [7]) it was more than 1000 nM.

On to `COc1ccc(-c2nc(N3CCOCC3)c3nc(CN(C)c4ncc(C(=O)NO)cn4)n(C4CCCC4)c3n2)cn1` [CLJ-4, 2-(((9-cyclopentyl-2-(6-methoxyl-3-pyridyl)-6-morpholino-9H-purine-8-yl))methyl(methyl)amino)-N-hydroxyl pyrimidine-5-formamide], for which the IC50 is less than 100 nM on HDAC1 (setting [4]); 1000 to 10000 nM on PI3Kα (setting [5]); more than 1000 nM in assay [1] (setting [6]); more than 1000 nM in assay [2]; more than 1000 nM in assay [3] (setting [7]).

Take `CN(Cc1nc2c(N3CCOCC3)nc(-c3ccc(N)nc3)nc2n1C)c1ncc(C(=O)NO)cn1` [CLJ-7, 2-(((2-(p-amino-3-pyridyl)-9-methyl-6-morpholine-9H-purine-8-yl))methyl(methyl)amino)-N-hydroxyl pyrimidine-5-formamide]: the IC50 on HDAC1 (setting [4]) is less than 100 nM; on PI3Kα (setting [5]) it was more than 10000 nM; in assay [1] (setting [6]) it was 100 to 1000 nM; in assay [1] (read-out: IC50 to proliferation of hct116 cells), more than 100 nM; in assay [2] it was 10 to 100 nM; in assay [3] (setting [7]) it was 0.1 to 10 nM. In addition, in assay [3] (read-out: IC50 to proliferation of MV4-11 cells), the IC50 is less than 10 nM.

`CN(Cc1nc2c(N3CCOCC3)nc(-c3cccnc3)nc2n1C)c1ncc(C(=O)NO)cn1` [CLJ-9, 2-(((2-(3-pyridyl)-9-methyl-6-morpholine-9H-purine-8-yl))methyl(methyl)amino)-N-hydroxyl pyrimidine-5-formamide]: the IC50 was less than 1 nM on HDAC1 (setting [4]); less than 1 nM at HDAC1 (setting [8]); more than 10000 nM on PI3Kα (setting [5]); 10 to 100 nM in assay [1] (setting [6]); 10 to 100 nM in assay [2]; 0.1 to 10 nM in assay [3] (setting [7]).

`CN(Cc1nc2c(N3CCOCC3)nc(-c3cncnc3)nc2n1C)c1ncc(C(=O)NO)cn1` [CLJ-10, 2-(((2-(pyrimidine-5-yl)-9-methyl-6-morpholine-9H-purine-8-yl))methyl(methyl)amino)-N-hydroxyl pyrimidine-5-formamide]: the IC50 on HDAC1 (setting [4]) is less than 100 nM; at PI3Kα (setting [5]), less than 100 nM; on PI3Kα (read-out: inhibition value IC50 to the activity of PI3Kα) it was less than 100 nM; in assay [1] (setting [6]), 10 to 100 nM; in assay [2], 100 to 1000 nM; in assay [3] (setting [7]), 10 to 100 nM.

For the molecule `CCCN(Cc1nc2c(N3CCOCC3)nc(-c3ccc4[nH]ncc4c3)nc2n1C)c1ncc(C(=O)NO)cn1` [CLJ-16, N-hydroxy-2-(((2-(1H-indazole-5-yl)-9-methyl-6-morpholine-9H-purine-8-yl))methyl(propyl)amino)pyrimidine-5-formamide], the IC50 was 100 to 1000 nM on HDAC1 (setting [4]); more than 10000 nM on PI3Kα (setting [5]); more than 1000 nM in assay [1] (setting [6]); more than 1000 nM in assay [2]; more than 1000 nM in assay [3] (setting [7]).

For the molecule `CCCCN(Cc1nc2c(N3CCOCC3)nc(-c3ccc4[nH]ncc4c3)nc2n1C)c1ncc(C(=O)NO)cn1` [CLJ-17, N-hydroxy-2-(((2-(1H-indazole-5-yl)-9-methyl-6-morpholine-9H-purine-8-yl))methyl(butyl)amino)pyrimidine-5-formamide], the IC50 is 100 to 1000 nM at HDAC1 (setting [4]); more than 10000 nM on PI3Kα (setting [5]); more than 1000 nM in assay [1] (setting [6]); more than 1000 nM in assay [2]; more than 1000 nM in assay [3] (setting [7]).

For `CN(Cc1nc2c(N3CCOCC3)nc(-c3cccs3)nc2n1C)c1ncc(C(=O)NO)cn1` [CLJ-18, 2-(((2-(2-thienyl)-9-methyl-6-morpholine-9H-purine-8-yl))methyl(methyl)amino)-N-hydroxyl pyrimidine-5-formamide], the IC50 was less than 100 nM on HDAC1 (setting [4]); more than 10000 nM on PI3Kα (setting [5]); 0.1 to 10 nM in assay [1] (setting [6]); 10 to 100 nM in assay [2]; 0.1 to 10 nM in assay [3] (setting [7]).

Consider `Cc1ccsc1-c1nc(N2CCOCC2)c2nc(CN(C)c3ncc(C(=O)NO)cn3)n(C)c2n1` [CLJ-19, 2-(((2-(3-methyl-2-thienyl)-9-methyl-6-morpholine-9H-purine-8-yl))methyl(methyl)amino)-N-hydroxyl pyrimidine-5-formamide], for which the IC50 on HDAC1 (setting [4]) is less than 100 nM; on PI3Kα (setting [5]) it was more than 10000 nM; in assay [1] (setting [6]), 0.1 to 10 nM; in assay [2] it was 10 to 100 nM; in assay [3] (setting [7]) it was 0.1 to 10 nM.

For `CN(Cc1nc2c(N3CCOCC3)nc(-c3ccc(C(=O)O)s3)nc2n1C)c1ncc(C(=O)NO)cn1` [CLJ-20, 2-(((2-(5-carboxyl-2-thienyl)-9-methyl-6-morpholine-9H-purine-8-yl))methyl(methyl)amino)-N-hydroxyl pyrimidine-5-formamide], the IC50 was less than 100 nM on HDAC1 (setting [4]); more than 10000 nM at PI3Kα (setting [5]); 0.1 to 10 nM in assay [1] (setting [6]); 10 to 100 nM in assay [2]; 0.1 to 10 nM in assay [3] (setting [7]).

On to `CN(Cc1nc2c(N3CCOCC3)nc(-c3cccc(C(=O)N4CCN(CO)CC4)c3)nc2n1C)c1ncc(C(=O)NO)cn1` [CLJ-66, 2-(((2-(3-(4-(hydroxymethyl)piperazine-1-carbonyl)phenyl)-9-methyl-6-morpholine-9H-purine-8-yl))methyl(methyl)amino)-N-hydroxyl pyrimidine-5-formamide], for which the IC50 is less than 100 nM at HDAC1 (setting [4]) and more than 10000 nM on PI3Kα (setting [5]).

As for `CN(Cc1nc2c(N3CCOCC3)nc(-c3ccc(CN4CCOCC4)cc3)nc2n1C)c1ncc(C(=O)NO)cn1` [CLJ-67], the IC50 on HDAC1 (setting [4]) was less than 1 nM; on HDAC1 (setting [8]), less than 1 nM; at PI3Kα (setting [5]), more than 10000 nM.

As to `COc1ccc(-c2nc(N3CCNCC3)c3nc(CN(C)c4ncc(C(=O)NO)cn4)n(C)c3n2)cc1` [CLJ-69, N-hydroxy-2-(((2-(4-methoxyphenyl)-9-methyl-6-(piperazine-1-yl)-9H-purine-8-yl)methyl)(methyl)amino)pyrimidine-5-formamide], the results for the IC50 on HDAC1 (setting [4]) and at PI3Kα (setting [5]) were less than 100 nM and more than 10000 nM, respectively.

Take `COc1ccc(-c2nc(N3CCN(CCO)CC3)c3nc(CN(C)c4ncc(C(=O)NO)cn4)n(C)c3n2)cc1` [CLJ-70, N-hydroxy-2-(((2-(4-methoxyphenyl)-9-methyl-6-(4-(2-hydroxyethylpiperazine)-1-yl)-9H-purine-8-yl)methyl)(methyl)amino)pyrimidine-5-formamide]: the IC50 at HDAC1 (setting [4]) is less than 100 nM; at PI3Kα (setting [5]), more than 10000 nM.

With `Nc1cc(F)ccc1NC(=O)c1ccc(CNC(=O)/C=C/c2cccnc2)cc1` [Chidamide, chidamide, reference compound], the IC50 in assay [1] (setting [6]) is more than 1000 nM; in assay [2], more than 1000 nM; in assay [3] (setting [7]), 100 to 1000 nM.
